PubChem BioAssay AID2060903 (Molecular Pharmacology Branch, DTP, NCI, 2025)
pIC50: −log10 of the molar value.

System: 377384-186-R-J1-PDC complex spheroid viability
Test: Anticancer human tumor 377384-186-R-J1-PDC patient-derived pancreatic carcinoma cell line growth inhibition [RAS]
Settings: for pIC50: curve of first compound; for viability, T/C: stronger effect = lower value; active means viability on the fitted dose curve at most 10% of control; inactive means the rest
Excerpt: RAS pathway inhibitors in Combinations in Complex Spheroids
A high-throughput screen of multi-cell type tumor spheroids was designed to identify active combinations of RAS pathway inhibitors and targeted small molecules. Complex spheroids include a stromal component modeled by human endothelial cells (HUVEC) and fibroblasts modeled by human mesenchymal stem cells (MSCs). The concentration ranges selected for each drug and investigational agent were based upon clinically achievable concentrations if the clinical Cmax of the agent was known.
Compounds. The drugs and investigational agents: abemaciclib (NSC768073), cobimetinib (NSC768068), divarasib (GDC6063, NSC841802), docetaxel (NSC628503), GDC-1971 (RLY-1971, NSC841576), gemcitabine (NSC613327), inavolisib (NSC800729), ipatasertib (NSC767898), KB-0742 (NSC834161), MRTX-1133 (NSC836407), osimertinib (NSC779217), RMC-4630 (NSC839698), RMC-6236 (NSC851965), RMC-6291 (NSC852671), Ro-3306 (NSC812927), sapanisertib (NSC764658), SN-38 (NSC673596), staurosporine (NSC755774), SY5609 (NSC837396), and tovorafenib (DAY101, NSC766906), were obtained from the National Cancer Institute (NCI) Developmental Therapeutics Program Chemical Repository. The FDA-approved anticancer drug set is available from the NCI Developmental Therapeutics Program. […] The stock solutions were prepared in dimethyl sulfoxide (DMSO, Sigma-Aldrich, St. Louis, MO, cat. D2650) at 800-fold the tested concentration and stored at -70 degrees C prior to their use. All drugs and investigational agents were tested over a range starting from a high concentration at or near the clinical Cmax and decreasing in half-log increments. If the clinical Cmax for an agent had not been determined, the highest concentration tested was 10 microM.
Cell Culture. All cells were maintained in an incubator at 37 degrees C and 5% CO2 with 95% humidity. The PDC lines were cultured according to standard operating procedures established by the NCI PDMR. All PDCs were thawed and cultured in Matrigel-coated flasks prepared with a working solution of 1X Ham's F-12 nutrient mix, without supplementation (Invitrogen, Waltham, MA, cat. 11765054), 100 U/mL penicillin-streptomycin (Invitrogen, cat. 15140122), and 2.5% Matrigel (Corning Inc., Corning, NY, cat. 354248) for the first three passages. The 362531-283-R-J2-PDC and 782815-120-R-J1-PDC lines were cultured in 6C/Colon 1B media, which includes advanced DMEM/F-12 (Thermo Fisher Scientific, cat. 12634028), 10 mM HEPES (Thermo Fisher Scientific, cat. 15630080), 1X GlutaMAX supplement (Thermo Fisher Scientific, cat. 35050061), 0.1 mg/mL primocin (InvivoGen, San Diego, CA, cat. ant-pm-2), 10% defined fetal bovine serum, heat inactivated (HyClone Laboratories Inc., Logan, UT, cat. SH30070.03HI), 50% L-WRN conditioned media (ATCC, cat. CRL-3276), 1.25 mM N-Acetyl-L-cysteine (Sigma-Aldrich, cat. A9165), 10 mM nicotinamide (Sigma-Aldrich, cat. N0636), 1X B-27 supplement (Thermo Fisher Scientific, cat. 17504044), 1X N-2 supplement (Thermo Fisher Scientific, cat. 17502048), 50 ng/mL human EGF (Thermo Fisher Scientific, cat. PHG0311), and 10 microM Y-27632 dihydrochloride (Tocris Bioscience, cat. 1254). The K12877-001-R-J1-PDC line was cultured in 6I media, which includes all 6C/Colon 1B media plus 10 ng/mL human FGF-10 (PeproTech, cat. 100-26), 1 ng/mL human FGF-2 (PeproTech, cat. 100-18B), 1 µM prostaglandin E2 (Tocris Bioscience, cat. 2296), […] hydrocortisone (Sigma-Aldrich, cat. H4001), and […] bovine insulin (Sigma-Aldrich, cat. I6634). The K86415-001-R-J1-PDC line was cultured in 6D media, which includes all 6C/Colon 1B media components minus the L-WRN conditioned media. The 485176-168-R4-J1-PDC was cultured in PANC media, which includes all 6C/Colon 1B media plus 100 ng/mL human FGF-10 (PeproTech, cat. 100-26), 500 nM SB-431542 (Selleckchem, cat. S1067), and 10 nM gastrin (Tocris Bioscience, cat. 3006). […]

[1] = second compound 0.0316 µM, first compound 0.0316 µM
[2] = second compound 0.0316 µM, first compound 0.1 µM
[3] = second compound 0.0316 µM, first compound 0.316 µM
[4] = second compound 0.0316 µM, first compound 1 µM
[5] = second compound 0.1 µM, first compound 0.0316 µM
[6] = second compound 0.1 µM, first compound 0.1 µM
[7] = second compound 0.1 µM, first compound 0.316 µM
[8] = second compound 0.1 µM, first compound 1 µM
[9] = second compound 0.316 µM, first compound 0.0316 µM
[10] = second compound 0.316 µM, first compound 0.1 µM
[11] = second compound 0.316 µM, first compound 0.316 µM
[12] = second compound 0.316 µM, first compound 1 µM
[13] = second compound 1 µM, first compound 0.0316 µM
[14] = second compound 1 µM, first compound 0.1 µM
[15] = second compound 1 µM, first compound 0.316 µM
[16] = second compound 1 µM, first compound 1 µM
[17] = second compound 3.16 µM, first compound 0.0316 µM
[18] = second compound 3.16 µM, first compound 0.1 µM
[19] = second compound 3.16 µM, first compound 0.316 µM
[20] = second compound 3.16 µM, first compound 1 µM
[21] = second compound 10 µM, first compound 0.0316 µM
[22] = second compound 10 µM, first compound 0.1 µM
[23] = second compound 10 µM, first compound 0.316 µM
[24] = second compound 10 µM, first compound 1 µM
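Further: spheroids exposed to compounds for seven days before readout.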

CCN1CCN(Cc2ccc(Nc3ncc(F)c(-c4cc(F)c5nc(C)n(C(C)C)c5c4)n3)nc2)CC1 + C#Cc1c(F)ccc2cc(O)cc(-c3ncc4c(N5CC6CCC(C5)N6)nc(OCC56CCCN5CC(F)C6)nc4c3F)c12
> 8.50: pIC50 (second compound 0.0316 µM) | pIC50 (second compound 0.1 µM) | pIC50 (second compound 0.316 µM) | pIC50 (second compound 1 µM) | pIC50 (second compound 3.16 µM) | pIC50 (second compound 10 µM)
inactive: viability, T/C (second compound 0.0316 µM, first compound 0.00316 µM) 21% | viability, T/C (second compound 0.0316 µM, first compound 0.01 µM) 18.9% | viability, T/C [1] 11.8% | viability, T/C [2] 11.6% | viability, T/C (second compound 0.1 µM, first compound 0.00316 µM) 9.77%
active: viability, T/C [3] 5.8% | viability, T/C [4] 4.39% | viability, T/C (second compound 0.1 µM, first compound 0.01 µM) 9.8% | viability, T/C [5] 8.49% | viability, T/C [6] 4.76% | viability, T/C [7] 3.64% | viability, T/C [8] 2.94% | viability, T/C (second compound 0.316 µM, first compound 0.00316 µM) 3.83% | viability, T/C (second compound 0.316 µM, first compound 0.01 µM) 3.75% | viability, T/C [9] 3.3% | viability, T/C [10] 2.21% | viability, T/C [11] 2.67% | viability, T/C [12] 2.17% | viability, T/C (second compound 1 µM, first compound 0.00316 µM) 2.87% | viability, T/C (second compound 1 µM, first compound 0.01 µM) 2.26% | viability, T/C [13] 2.11% | viability, T/C [14] 1.55% | viability, T/C [15] 2.1% | viability, T/C [16] 2.53% | viability, T/C (second compound 3.16 µM, first compound 0.00316 µM) 1.72% | viability, T/C (second compound 3.16 µM, first compound 0.01 µM) 1.78% | viability, T/C [17] 1.26% | viability, T/C [18] 1.41% | viability, T/C [19] 1.98% | viability, T/C [20] 1.76% | viability, T/C (second compound 10 µM, first compound 0.00316 µM) 1.13% | viability, T/C (second compound 10 µM, first compound 0.01 µM) 1.55% | viability, T/C [21] 0.87% | viability, T/C [22] 0.72% | viability, T/C [23] 0.67% | viability, T/C [24] 0.32%

C[C@@H](NC(=O)c1ncnc(N)c1Cl)c1ncc(C(=O)Nc2cc(C(F)(F)F)c(Cl)cn2)s1 + C#Cc1c(F)ccc2cc(O)cc(-c3ncc4c(N5CC6CCC(C5)N6)nc(OCC56CCCN5CC(F)C6)nc4c3F)c12
inactive: viability, T/C [1] 30.5% | viability, T/C [2] 27.9% | viability, T/C [3] 30% | viability, T/C [4] 31.1% | viability, T/C (second compound 0.0316 µM, first compound 3.16 µM) 30.3% | viability, T/C (second compound 0.0316 µM, first compound 10 µM) 27.2% | viability, T/C [5] 14.6% | viability, T/C [6] 16.2% | viability, T/C [7] 14.1% | viability, T/C [8] 19.3% | viability, T/C (second compound 0.1 µM, first compound 3.16 µM) 16.2% | viability, T/C (second compound 0.1 µM, first compound 10 µM) 14.4%
> 7.50: pIC50 (second compound 0.0316 µM) | pIC50 (second compound 0.1 µM) | pIC50 (second compound 0.316 µM) | pIC50 (second compound 1 µM) | pIC50 (second compound 3.16 µM) | pIC50 (second compound 10 µM)
active: viability, T/C [9] 7.93% | viability, T/C [10] 8.44% | viability, T/C [11] 10.6% | viability, T/C [12] 9.52% | viability, T/C (second compound 0.316 µM, first compound 3.16 µM) 11.1% | viability, T/C (second compound 0.316 µM, first compound 10 µM) 10.5% | viability, T/C [13] 4.26% | viability, T/C [14] 5.19% | viability, T/C [15] 5.9% | viability, T/C [16] 8.08% | viability, T/C (second compound 1 µM, first compound 3.16 µM) 8.4% | viability, T/C (second compound 1 µM, first compound 10 µM) 6.52% | viability, T/C [17] 3.23% | viability, T/C [18] 2.84% | viability, T/C [19] 2.97% | viability, T/C [20] 3.77% | viability, T/C (second compound 3.16 µM, first compound 3.16 µM) 4.25% | viability, T/C (second compound 3.16 µM, first compound 10 µM) 4.87% | viability, T/C [21] 2.04% | viability, T/C [22] 1.21% | viability, T/C [23] 1.76% | viability, T/C [24] 2.5% | viability, T/C (second compound 10 µM, first compound 3.16 µM) 3.8% | viability, T/C (second compound 10 µM, first compound 10 µM) 1.16%
